The values that follow come from patent US10975056B2 (GlaxoSmithKline Intellectual Property Development Limited, priority 2016, dated 2021).

Several values for one entry are separate records, joined by “and”; a condition that tells them apart may be missing. Equal values may be shown once. Read-outs that look alike come from different tables or passages of the source.

In one assay the target is DNMT1 (Homo sapiens, UniProt P26358). Nature of the assay: DNMT1 biochemical activity, breaklight assay and/or SPA assay.
DNMT1, sequence (P26358 whole entry, looked up): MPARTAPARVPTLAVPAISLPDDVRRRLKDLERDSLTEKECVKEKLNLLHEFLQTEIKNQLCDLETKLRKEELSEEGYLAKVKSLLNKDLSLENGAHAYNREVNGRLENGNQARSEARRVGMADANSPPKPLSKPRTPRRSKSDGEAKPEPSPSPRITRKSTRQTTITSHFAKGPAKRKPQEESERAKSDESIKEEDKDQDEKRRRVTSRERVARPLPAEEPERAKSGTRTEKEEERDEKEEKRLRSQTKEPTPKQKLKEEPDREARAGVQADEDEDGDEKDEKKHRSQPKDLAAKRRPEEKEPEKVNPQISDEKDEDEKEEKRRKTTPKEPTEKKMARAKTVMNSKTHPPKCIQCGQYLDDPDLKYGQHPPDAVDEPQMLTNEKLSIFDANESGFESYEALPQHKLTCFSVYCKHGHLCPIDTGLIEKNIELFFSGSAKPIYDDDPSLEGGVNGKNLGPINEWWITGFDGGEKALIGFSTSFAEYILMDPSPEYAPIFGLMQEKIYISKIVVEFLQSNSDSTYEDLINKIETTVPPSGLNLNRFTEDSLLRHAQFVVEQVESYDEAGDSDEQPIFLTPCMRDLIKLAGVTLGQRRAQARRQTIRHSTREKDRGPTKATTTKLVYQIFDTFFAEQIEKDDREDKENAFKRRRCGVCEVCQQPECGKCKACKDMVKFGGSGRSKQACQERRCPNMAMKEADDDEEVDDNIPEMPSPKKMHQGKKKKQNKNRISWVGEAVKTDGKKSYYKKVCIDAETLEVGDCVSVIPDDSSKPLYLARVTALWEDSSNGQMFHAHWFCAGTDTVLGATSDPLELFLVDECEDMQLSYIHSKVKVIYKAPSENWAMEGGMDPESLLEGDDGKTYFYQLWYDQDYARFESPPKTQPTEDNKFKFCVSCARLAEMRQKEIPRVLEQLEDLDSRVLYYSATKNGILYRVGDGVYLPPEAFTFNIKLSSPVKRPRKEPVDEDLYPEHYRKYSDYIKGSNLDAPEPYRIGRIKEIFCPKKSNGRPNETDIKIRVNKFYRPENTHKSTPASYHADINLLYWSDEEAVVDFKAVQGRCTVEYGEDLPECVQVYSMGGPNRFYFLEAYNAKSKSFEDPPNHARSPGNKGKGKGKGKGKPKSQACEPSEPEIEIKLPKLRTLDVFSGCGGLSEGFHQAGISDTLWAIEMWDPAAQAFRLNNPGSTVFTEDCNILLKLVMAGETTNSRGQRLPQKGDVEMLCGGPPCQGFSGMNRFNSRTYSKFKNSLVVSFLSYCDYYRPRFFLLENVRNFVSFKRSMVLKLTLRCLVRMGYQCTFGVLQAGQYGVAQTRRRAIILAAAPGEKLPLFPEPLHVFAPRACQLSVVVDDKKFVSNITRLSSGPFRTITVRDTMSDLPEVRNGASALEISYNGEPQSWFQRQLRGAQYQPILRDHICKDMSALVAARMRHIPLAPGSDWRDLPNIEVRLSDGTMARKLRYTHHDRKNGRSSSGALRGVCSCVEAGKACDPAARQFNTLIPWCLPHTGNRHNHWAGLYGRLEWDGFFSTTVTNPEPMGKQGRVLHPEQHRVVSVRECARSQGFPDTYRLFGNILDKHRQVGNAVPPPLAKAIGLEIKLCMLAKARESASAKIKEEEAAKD
For assay [1], the system named is erythroid progenitor cells (EPCs). Nature of the assay: Fetal hemoglobin (HbF) ELISA in day 7 erythroid progenitor cells.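 Note: for fetal hemoglobin induction normalized to vehicle-treated cells.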 The assay is classed as cell-based, human. As to conditions: Homo sapiens, Erythroid progenitor cell, HbF ELISA, day 7 EPCs, 5 days; read-out: EPC ELISA (pEC50 category) (converted). A digest of the protocol:
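HbF induction was read by anti-HbF sandwich ELISA (HRP/TMB, OD450) on lysates and normalized to vehicle-treated cells. Cells were day 7 erythroid progenitors derived from human bone marrow CD34+ cells, seeded at 1,000/well with 3 U/mL rhEPO. Compound was given for 5 days at 37 °C at final concentrations […].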

Where [2] appears, read: binned activity in either the breaklight or the SPA assay.
Where [3] appears, read: breaklight assay and/or SPA assay, repeated experimental runs.
Where [4] appears, read: breaklight assay and/or SPA assay, repeated experimental runs, read-out: average pIC50 against DNMT1 (converted).
The mark [5] stands for this setting: binned activity in either the breaklight or the SPA assay, read-out: DNMT1 BioChemical (pIC50 category) (converted).

`CCc1c(C#N)c(S[C@@H](C(N)=O)c2ccccc2)nc(N2CC[C@H](O)C2)c1C#N` [Example 168, (R)-2-((3,5-Dicyano-4-ethyl-6-((S)-3-hydroxypyrrolidin-1-yl)pyridin-2-yl)thio)-2-phenylacetamide]: the “DNMT1 BioChemical (pIC50 category)” value on DNMT1 (setting [2]) is listed as “D (Category D: ≥6.5)”. Besides, the “average pIC50 against DNMT1” value on DNMT1 (setting [3]) was greater than 6.5. In addition, the IC50 at DNMT1 (setting [4]) was 200 nM. For the same molecule, the EC50 in assay [1] was 316 to 1000 nM.

`C[C@@H](N)C(=O)NC1CCN(c2nc(SC(C(N)=O)c3ccccc3)c(C#N)c(C3CC3)c2C#N)CC1` (stereo partly drawn) [Example 372, (2R)-2-Amino-N-(1-(6-((2-amino-2-oxo-1-phenylethyl)thio)-3,5-dicyano-4-cyclopropylpyridin-2-yl)piperidin-4-yl)propanamide]: on DNMT1 (setting [2]), the “DNMT1 BioChemical (pIC50 category)” value is recorded as “D (Category D: ≥6.5)”. The EC50 in assay [1] is 316 to 1000 nM.

On to `CCc1c(C#N)c(SC(C(N)=O)c2ccccc2)nc(N2CCC(N3CCC[C@@H]3C)CC2)c1C#N` (stereo partly drawn) [Example 453, 2-((3,5-dicyano-4-ethyl-6-(4-((S)-2-methylpyrrolidin-1-yl)piperidin-1-yl)pyridin-2-yl)thio)-2-phenylacetamide], for which, on DNMT1 (setting [2]), the “DNMT1 BioChemical (pIC50 category)” value is recorded as “D (Category D: ≥6.5)”. The EC50 in assay [1] was less than 316 nM.

On to `CCc1c(C#N)c(SC(C(N)=O)c2ccccc2)nc(N2CC(OC(=O)C(N)C(C)C)C2)c1C#N` (stereo in doubt) [Example 333, (2R)-1-(6-((2-Amino-2-oxo-1-phenylethyl)thio)-3,5-dicyano-4-ethylpyridin-2-yl)azetidin-3-yl 2-amino-3-methylbutanoate], for which the “DNMT1 BioChemical (pIC50 category)” value on DNMT1 (setting [2]) is “D (Category D: ≥6.5)”. For the same molecule, in assay [1], the EC50 was 1000 to 31600 nM.

In the case of `CCc1c(C#N)c(SC(C(N)=O)c2ccccc2)nc(N2CCN(Cc3ncco3)CC2)c1C#N` (stereo not drawn) [Example 176, 2-((3,5-Dicyano-4-ethyl-6-(4-(oxazol-2-ylmethyl)piperazin-1-yl)pyridin-2-yl)thio)-2-phenylacetamide], the IC50 on DNMT1 (setting [5]) was 316 to 1000 nM. In assay [1], the EC50 is 316 to 1000 nM.

As for `CCc1c(C#N)c(SC(C(N)=O)c2ccccc2)nc(N2CCN(Cc3cnco3)CC2)c1C#N` (stereo not drawn) [Example 184, 2-((3,5-Dicyano-4-ethyl-6-(4-(oxazol-5-ylmethyl)piperazin-1-yl)pyridin-2-yl)thio)-2-phenylacetamide], the IC50 on DNMT1 (setting [5]) was 316 to 1000 nM. Moreover, the EC50 in assay [1] is 316 to 1000 nM.

For `CCc1c(C#N)c(S[C@H](C(N)=O)c2ccccc2)nc(N2CCC(C)(N)CC2)c1C#N` (single isomer, unassigned) [Example 608, 2-((6-(4-amino-4-methylpiperidin-1-yl)-3,5-dicyano-4-ethylpyridin-2-yl)thio)-2-phenylacetamide], at DNMT1 (setting [2]), the “DNMT1 BioChemical (pIC50 category)” value is listed as “D (Category D: ≥6.5)”. In assay [1], the EC50 is less than 316 nM.

Regarding `COc1c(C#N)c(SC(C(N)=O)c2ccccc2)nc(N(C)C)c1C#N` (stereo not drawn) [Example 191, 2-((3,5-Dicyano-6-(dimethylamino)-4-methoxypyridin-2-yl)thio)-2-phenylacetamide], on DNMT1 (setting [2]), the “DNMT1 BioChemical (pIC50 category)” value is “D (Category D: ≥6.5)”. The EC50 in assay [1] is 316 to 1000 nM.

`CCc1c(C#N)c(SCc2ccc(N(C)S(=O)(=O)CF)cc2)nc(N2CCCN(C)CC2)c1C#N` [Example 595, N-(4-(((3,5-dicyano-4-ethyl-6-(4-methyl-1,4-diazepan-1-yl)pyridin-2-yl)thio)methyl)phenyl)-1-fluoro-N-methylmethanesulfonamide]: on DNMT1 (setting [2]), the “DNMT1 BioChemical (pIC50 category)” value is listed as “D (Category D: ≥6.5)”. Further, in assay [1], the EC50 was less than 316 nM.

As to `CCc1c(C#N)c(SC(C(N)=O)c2ccccn2)nc(N2CC[C@H](O)C2)c1C#N` (stereo partly drawn) [Example 322, 2-((3,5-Dicyano-4-ethyl-6-((S)-3-hydroxypyrrolidin-1-yl)pyridin-2-yl)thio)-2-(pyridin-2-yl)acetamide], at DNMT1 (setting [2]), the “DNMT1 BioChemical (pIC50 category)” value was “D (Category D: ≥6.5)”. In assay [1], the EC50 is 316 to 1000 nM.

Turning to `CCc1c(C#N)c(C)nc(SC(C(N)=O)c2ccccc2)c1C#N` (stereo not drawn) [Example 283, 2-((3,5-Dicyano-4-ethyl-6-methylpyridin-2-yl)thio)-2-phenylacetamide], the IC50 on DNMT1 (setting [5]) is 316 to 1000 nM; at DNMT1 (setting [4]), 316 to 1000 nM and 631 nM. Further, the EC50 in assay [1] was 1000 to 31600 nM.

As for `CCc1c(C#N)c(SCc2ccc(N(C)S(C)(=O)=O)cc2)nc(N(C)CCNCC(C)(C)C)c1C#N` [Example 458, N-(4-(((3,5-dicyano-4-ethyl-6-(methyl(2-(neopentylamino)ethyl)amino)pyridin-2-yl)thio)methyl)phenyl)-N-methylmethanesulfonamide], at DNMT1 (setting [2]), the “DNMT1 BioChemical (pIC50 category)” value is “D (Category D: ≥6.5)”. The EC50 in assay [1] is less than 316 nM.

In the case of `CCc1c(C#N)c(SC(C(N)=O)c2ccccc2)nc(N2CCC3(COC3)C2)c1C#N` (stereo not drawn) [Example 161, 2-((3,5-Dicyano-4-ethyl-6-(2-oxa-6-azaspiro[3.4]octan-6-yl)pyridin-2-yl)thio)-2-phenylacetamide], the IC50 on DNMT1 (setting [5]) was 316 to 1000 nM. Moreover, in assay [1], the EC50 was 1000 to 31600 nM.

Consider `CC(C)(N)C(=O)NC1CCN(c2nc(SC(C(N)=O)c3ccccc3)c(C#N)c(C3CC3)c2C#N)CC1` (stereo not drawn) [Example 374, 2-Amino-N-(1-(6-((2-amino-2-oxo-1-phenylethyl)thio)-3,5-dicyano-4-cyclopropylpyridin-2-yl)piperidin-4-yl)-2-methylpropanamide], for which, at DNMT1 (setting [2]), the “DNMT1 BioChemical (pIC50 category)” value was “D (Category D: ≥6.5)”. Also, the EC50 in assay [1] is 316 to 1000 nM.

As for `CCc1c(C#N)c(SC(C(N)=O)c2ccccc2)nc(N2CCC(NC(=O)CO)CC2)c1C#N` (stereo not drawn) [Example 286, N-(1-(6-((2-Amino-2-oxo-1-phenylethyl)thio)-3,5-dicyano-4-ethylpyridin-2-yl)piperidin-4-yl)-2-hydroxyacetamide], at DNMT1 (setting [2]), the “DNMT1 BioChemical (pIC50 category)” value is “D (Category D: ≥6.5)”. Besides, at DNMT1 (setting [4]), the IC50 was 316 to 1000 nM and 316 nM. In addition, in assay [1], the EC50 was 1000 to 31600 nM.

On to `CCc1c(C#N)c(SC(C(N)=O)c2ccc(F)cc2)nc(N2CCC(N(C)C)CC2)c1C#N` (stereo not drawn) [Example 207, 2-((3,5-Dicyano-6-(4-(dimethylamino)piperidin-1-yl)-4-ethylpyridin-2-yl)thio)-2-(4-fluorophenyl)acetamide], for which the IC50 at DNMT1 (setting [5]) is 316 to 1000 nM. Further, the EC50 in assay [1] is less than 316 nM.

Regarding `CCc1c(C#N)c(S[C@@H](C(N)=O)c2ccccc2)nc(N2CC[C@@H](N)[C@H](O)C2)c1C#N` [Example 523, (R)-2-((6-((3R,4R)-4-amino-3-hydroxypiperidin-1-yl)-3,5-dicyano-4-ethylpyridin-2-yl)thio)-2-phenylacetamide 2,2,2-trifluoroacetate*], the “DNMT1 BioChemical (pIC50 category)” value at DNMT1 (setting [2]) was “D (Category D: ≥6.5)”. For the same molecule, the “average pIC50 against DNMT1” value on DNMT1 (setting [3]) is listed as greater than 6.5. Also, at DNMT1 (setting [4]), the IC50 was 79.4 nM. The EC50 in assay [1] was less than 316 nM.

As for `CCc1c(C#N)c(SC(C(N)=O)c2cccc(P(C)(C)=O)c2)nc(N2CC[C@H](O)C2)c1C#N` (stereo partly drawn) [Example 420, 2-((3,5-Dicyano-4-ethyl-6-((S)-3-hydroxypyrrolidin-1-yl)pyridin-2-yl)thio)-2-(3-(dimethylphosphoryl)phenyl)acetamide], the IC50 on DNMT1 (setting [5]) was 316 to 1000 nM. For the same molecule, in assay [1], the EC50 is 1000 to 31600 nM.

For the molecule `CC1CN(c2nc(SC(C(N)=O)c3ccccc3)c(C#N)c(C3CC3)c2C#N)CCN1` (stereo not drawn) [Example 19, 2-((3,5-Dicyano-4-cyclopropyl-6-(3-methylpiperazin-1-yl)pyridin-2-yl)thio)-2-phenylacetamide], the IC50 on DNMT1 (setting [5]) was 316 to 1000 nM. Moreover, in assay [1], the EC50 is less than 316 nM.

As for `CCc1c(C#N)c(S[C@H](C(N)=O)c2ccccc2)nc(N2CC[C@@H](N)[C@@H](F)C2)c1C#N` [Example 531, (S)-2-((6-((3S,4R)-4-amino-3-fluoropiperidin-1-yl)-3,5-dicyano-4-ethylpyridin-2-yl)thio)-2-phenylacetamide • (0.67)2,2,2-trifluoroacetate • (0.33)methanesulfonate], the IC50 was 1000 to 31600 nM at DNMT1 (setting [5]); ≥ 1000 nM and 1580 nM at DNMT1 (setting [4]). For the same molecule, the EC50 in assay [1] is less than 316 nM.

`CCc1c(C#N)c(SCc2ccc(N(C)S(C)(=O)=O)cc2)nc(N2CCOC(CNC)C2)c1C#N` (stereo not drawn) [Example 596, N-(4-(((3,5-dicyano-4-ethyl-6-(2-((methylamino)methyl)morpholino)pyridin-2-yl)thio)methyl)phenyl)-N-methylmethanesulfonamide]: on DNMT1 (setting [2]), the “DNMT1 BioChemical (pIC50 category)” value is “D (Category D: ≥6.5)”. In addition, in assay [1], the EC50 is 316 to 1000 nM.

`CCc1c(C#N)c(SC(C(N)=O)c2ccccc2)nc(N2CC(CC(N)=O)C2)c1C#N` (stereo not drawn) [Example 330, 2-((6-(3-(2-Amino-2-oxoethyl)azetidin-1-yl)-3,5-dicyano-4-ethylpyridin-2-yl)thio)-2-phenylacetamide]: the “DNMT1 BioChemical (pIC50 category)” value on DNMT1 (setting [2]) was “D (Category D: ≥6.5)”. Besides, the EC50 in assay [1] was 1000 to 31600 nM.

Turning to `CCc1c(C#N)c(SC(C(N)=O)c2ccccc2)nc(N2CCC(N3[C@@H](C)CC[C@@H]3C)CC2)c1C#N` (stereo partly drawn) [Example 462, 2-((3,5-dicyano-6-(4-((2S,5S)-2,5-dimethylpyrrolidin-1-yl)piperidin-1-yl)-4-ethylpyridin-2-yl)thio)-2-phenylacetamide], the “DNMT1 BioChemical (pIC50 category)” value at DNMT1 (setting [2]) was “D (Category D: ≥6.5)”. Also, the EC50 in assay [1] was less than 316 nM.

Take `CCc1c(C#N)c(SC(C(N)=O)c2ccccc2)nc(N2CC(ONC(=N)N)C2)c1C#N` (stereo not drawn) [Example 676, 2-((3,5-dicyano-4-ethyl-6-(3-(guanidinooxy)azetidin-1-yl)pyridin-2-yl)thio)-2-phenylacetamide]: the “DNMT1 BioChemical (pIC50 category)” value on DNMT1 (setting [2]) is recorded as “D (Category D: ≥6.5)”. In addition, the EC50 in assay [1] was 1000 to 31600 nM.

In the case of `CCc1c(C#N)c(SC(C(N)=O)c2ccccc2)nc(N(C)C2CC(N)C2)c1C#N` (stereo not drawn) [Example 498, 2-((6-((3-aminocyclobutyl)(methyl)amino)-3,5-dicyano-4-ethylpyridin-2-yl)thio)-2-phenylacetamide], at DNMT1 (setting [2]), the “DNMT1 BioChemical (pIC50 category)” value is recorded as “D (Category D: ≥6.5)”. The EC50 in assay [1] is 316 to 1000 nM.
